According to patent publication EP4335840A1, “NEW CONTRAST AGENTS FOR USE IN DIAGNOSTIC IMAGING” (priority 2022, dated 2024):

Key:
OATP1B1 [1] = molecular target: T1, OATP1B1 (Homo sapiens, UniProt Q9Y6L6); experiment: Uptake into stable transfected OATP1B1 HEK 293 cells; type: cell-based; details: 100 µM, 40 min, relative to RC1 (Gd-EOB-DTPA)
T1 sequence (Q9Y6L6 1-691): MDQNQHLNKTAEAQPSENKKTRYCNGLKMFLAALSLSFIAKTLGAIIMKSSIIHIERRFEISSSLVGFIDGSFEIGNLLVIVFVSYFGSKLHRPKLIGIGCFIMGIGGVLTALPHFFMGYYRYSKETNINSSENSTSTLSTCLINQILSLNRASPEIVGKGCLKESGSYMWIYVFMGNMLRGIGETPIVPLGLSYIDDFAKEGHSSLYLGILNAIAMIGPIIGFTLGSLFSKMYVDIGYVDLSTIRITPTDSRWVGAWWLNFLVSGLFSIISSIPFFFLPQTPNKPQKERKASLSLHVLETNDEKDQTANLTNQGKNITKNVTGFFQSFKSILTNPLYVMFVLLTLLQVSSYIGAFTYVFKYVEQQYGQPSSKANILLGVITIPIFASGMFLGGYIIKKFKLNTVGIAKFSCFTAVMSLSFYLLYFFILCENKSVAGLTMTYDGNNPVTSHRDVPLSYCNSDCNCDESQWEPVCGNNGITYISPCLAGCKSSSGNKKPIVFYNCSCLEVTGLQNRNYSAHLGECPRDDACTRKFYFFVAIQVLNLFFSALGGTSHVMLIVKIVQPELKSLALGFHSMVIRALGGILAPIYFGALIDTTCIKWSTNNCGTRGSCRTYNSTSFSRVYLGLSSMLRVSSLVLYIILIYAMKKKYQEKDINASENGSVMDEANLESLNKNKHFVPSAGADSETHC
Description: Human stable transfected OATP1B1 human embryonic kidney 293 cells (OATP1B1 HEK 293, SLCO1B1, Entrez Gene ID: 10599) were used (Leonhardt M et al. Drug Metab Dispos. 2010 Jul;38(7):1024-8). The following culture medium was used: 500 mL DMEM (Dulbecco's Modified Eagle Medium - high Glucose, D6429), 50 mL FCS (fetal bovine serum, Fa. Sigma, F7524), 5.8 mL G418 (Geneticin, Fa. Gibco 10131-027) and 5 mL Pen-Strep. (Penicillin-Streptomycin, Fa. Gibco, Ref 15140-122). Cryopreserved cells were shortly thawed in water bath and diluted in 10 mL warm culture medium (37°C). After medium change the cells were grown for 3d in a 25 cm^2 cell culture flask. After 3 to 5d the cells were transferred into 75 cm^2 flasks. For the splitting the cells were incubated with 1.5 mL trypsin (Trypsin-EDTA (1x) 0,05%, Ref 25300-054 100ml, Fa. Gibco) for 3-5min in the incubator (37°C, 5% CO2 and […]). After centrifugation and washing with medium the cells were counted (50 µL cell suspension and 50 µL trypan blue (Trypan Blue Solution, 93595-50ml, Fa. Fluka). Cells were cultured (1×10^5 cells/well) in poly-D-lysine coated 24-well plates (Fa. Corning, Ref: 354414) in 1.5 mL medium per well. After 48h in the incubator the medium was changed and 1.5 mL/well sodium butyrate containing medium were added (40 mL culture medium plus 400 µL Na-Butyrate, Fa. Sigma Aldrich B5887-5G, 250 mg in 2.27 mL MilliQ water). After 24h in the incubator the medium was vacuumed off and 1.5 mL transport buffer was added and incubated for 10min. The transport buffer contains the following ingredients: 500 mL HBSS (Hank's balanced salt solution, Hyclone, SH30268.01), 5 mL HEPES buffer (4-(2-hydroxyethyl)-1-piperazineethanesulfonic acid, Gibco 15630-056) and 3.9 mL glucose (Sigma, G8270-100, 90 g/200mL MilliQ water). All test items were prepared in transport buffer at a final concentration of 100 µM from stock solutions (180 to 500 mM concentration). The OATP1B1 HEK 293 cells were incubated with test solutions (test item in transport buffer 500 µL) for 40min on a thermoshaker without shaking (PHMP, Fa. Grant Bio). Triplicates were performed for each test item. After incubation the cells were washed with 2 mL of cold PBS (+) buffer (Dulbeccos PBS +, Fa. Gibco). […] As a reference standard Gd-EOB-DTPA (gadoxetate) is used in the same well plate. The OATP1B1 HEK 293 uptake of the test compound is calculated relative to gadoxetate (resulting in the unit % of RC1).

OATP1B1 [2] = molecular target: T1, OATP1B1; experiment: as above; type: cell-based; details: OATP1B1-HEK 293 cell uptake with Rifampicine
[3] = Water solubility in aqueous buffer; type: physicochemical; details: aqueous buffer 10 mM Tris-HCl, pH 7.4, 20°C; Gd by ICP-MS
Description: The exploratory water solubility of the compounds is determined at room temperature (20°C) in 0.5 mL buffer solution (10 mM Tris-HCI, pH 7.4) in the microcentrifuge tubes (Eppendorf, 2.0 mL safe-lock caps). The solid compounds were added stepwise to the buffer solution. More substance is added once all the suspended material is dissolved until an equilibrium between undissolved and dissolved substance is reached. The suspension was mixed using a shaker (Heidolph Reax 2000) and treated 5 min in an ultrasound bath (Bandelin, Sonorex Super RK255H). The Gadolinium concentration of the test substance in the clear solution is measured by ICP-MS. Table 1: Solubilities of compounds in aqueous buffer at 20°C (pH 7.4).

Substance	Uptake into OATP1B1-HEK 293 cells (OATP1B1 [1])	Inhibition Rifampicine (OATP1B1 [2])	Solubility [3]
Gadolinium-2,2',2"-[10-(carboxymethyl)-2-(4-ethoxybenzyl)-1,4,7,10-tetraazacyclododecane-1,4,7-triyl]triacetate [Example 8]	208 % of RC1	75 % inhibition	
Gadolinium-2,2',2"-[10-(carboxymethyl)-2-(4-ethoxybenzyl)-1,4,7,10-tetraazacyclododecane-1,4,7-triyl]triacetate [Example 9]	60 % of RC1	23 % inhibition	> 145 mM
Gadolinium-2,2',2"-[(2S)-2-(4-butoxybenzyl)-10-(carboxymethyl)-1,4,7,10-tetraaza cyclododecane-1,4,7-triyl]triacetate [Example 12]	119 % of RC1	81 % inhibition	211 mM
Gadolinium-2,2',2"-[(2S)-2-(4-butoxybenzyl)-10-(carboxymethyl)-1,4,7,10-tetraaza cyclododecane-1,4,7-triyl]triacetate [Example 13]	847 % of RC1	88 % inhibition	> 43 mM
Gadolinium-2,2',2"-[(2S)-10-(carboxymethyl)-2-(4-ethoxybenzyl)-1,4,7,10-tetraazacyclododecane-1,4,7-triyl]triacetate [Example 10]	212 % of RC1	73 % inhibition	> 23 mM
Gadolinium-2,2',2"-[(2S)-10-(carboxymethyl)-2-(4-ethoxybenzyl)-1,4,7,10-tetraazacyclododecane-1,4,7-triyl]triacetate [Example 11]	96 % of RC1	64 % inhibition	> 146 mM
